The values below come from US12358910B2, “Heteroaromatic compounds as Vanin inhibitors” (Boehringer Ingelheim International GmbH, priority 2018, dated 2025).

Experiment [1] deals with T1, FLAG-tagged Vanin-1 (AA 22-493, T26I) (Homo sapiens, UniProt O95497, T26I).
T1 construct: FLAG-tagged Vanin-1 (AA 22-493, T26I, produced internally); FLAG; made in house
T1 sequence (O95497 22-493 T26I): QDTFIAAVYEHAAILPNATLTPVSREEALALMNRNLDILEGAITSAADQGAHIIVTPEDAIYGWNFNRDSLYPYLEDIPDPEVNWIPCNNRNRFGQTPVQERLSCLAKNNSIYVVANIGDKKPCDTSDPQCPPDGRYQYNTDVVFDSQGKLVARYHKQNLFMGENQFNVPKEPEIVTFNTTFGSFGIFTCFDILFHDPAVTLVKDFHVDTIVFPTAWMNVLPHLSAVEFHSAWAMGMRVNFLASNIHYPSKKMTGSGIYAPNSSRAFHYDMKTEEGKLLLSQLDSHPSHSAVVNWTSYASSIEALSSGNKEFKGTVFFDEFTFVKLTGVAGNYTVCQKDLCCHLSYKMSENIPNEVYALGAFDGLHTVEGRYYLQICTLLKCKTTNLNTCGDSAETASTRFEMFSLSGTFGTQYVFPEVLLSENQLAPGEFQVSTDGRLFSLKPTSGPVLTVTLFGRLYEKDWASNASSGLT
Kind of experiment: Vanin-1 enzymatic assay (pantothenic acid formation, RapidFire mass spectrometry). It is filed as biochemical. The note with it: 0.1 nM FLAG-tagged Vanin-1, 3 μM D-pantethine, room temperature; geometric mean in case of multiple measurements; read-out: VNN-1 IC50. The protocol:
Description of Biological Properties Vanin-1 Enzymatic Assay:
The test compounds are dissolved in 100% DMSO at a concentration of 10 mM and in a first step diluted in DMSO to a concentration of 5 mM, followed by serial dilution steps in 100% DMSO. Dilution factor and number of dilution steps may vary according to needs. Typically 8 different concentrations by 1:5 dilutions are prepared, a further intermediate dilutions of the substances is carried out with assay buffer resulting in 1% final DMSO concentration in the assay.
0.1 nM of FLAG-tagged Vanin-1 (AA 22-493, T26I, produced internally) and test compounds are incubated at room temperature for 20 minutes in assay buffer (1 mM DTT, 0.0025% Brij-35, 50 mM HEPES, pH7.5). D-Pantethine (Sigma, Cat #P2125-5G) in assay buffer is added (final concentration 3 μM) and incubated for additional 30 minutes at room temperature. Total assay volume typically is 40 μl but might be adjusted according to needs. Reaction is stopped by adding equal volume of stop solution as the reaction mixture to reach 100 nM HD-pantothenic acid (as an internal standard) and 1% TFA. Assay plates are centrifuged for 2 minutes and the formation of pantothenic acid is detected by RapidFire Mass Spectrometry (mobile phase A: 0.1% formic acid and 0.01% trifluoroacetic acid in water; mobile phase B: 47.5% acetonitrile, 47.5% methanol, 0.1% formic acid and 0.01% trifluoroacetic acid in water) using a C18, 12 μL cartridge (Agilent Cat #G9205A).
The values given in Table I result from measurements of one or more samples. In case of multiple measurements the geometric mean values are given.

For the next experiment, the system named is Pantetheinase (vanin). Kind of experiment: Human Whole Blood assay (vanin activity by pantothenic acid formation). It counts as cell-based. The note with it: pantethine substrate, 5 min reaction at room temperature, geometric mean in case of multiple measurements, read-out: HWB IC50. The protocol: Human Whole Blood assay: Pantetheinase (vanin) converts panteheine into pantothenic acid and cysteamine. Accordingly, in the described protocol vanin activity is quantified by formation of pantothenic acid after pantetheine supplementation via pantethine. The assay is applicable to identify vanin inhibitors. Compound stocks are dissolved in DMSO at 10 mM. Further dilutions are performed in RPMI 1640 medium (Gibco, #A-10491-01) and final concentrations in the assay are 0.032 nM-500 nM.
Human blood is drawn into a blood bag (1% heparin, 50 I.E./mL). Blood is aliquoted into cavities of 96-deep-well plates at 290 μL and mixed with 10 μL compound solution or vehicle (30 sec at 1400 rpm on a shaker). Equilibration follows at room temperature, 250 rpm and for 30 min. The assay is started by adding 10 μL of substrate solution (2 μM pantethine in 1 mM DTT, 0.0025% Brij-35, 50 mM HEPES, pH7.5) to each well, except for some blank wells which receive […] substrate buffer (1 mM DTT, 0.0025% Brij-35, 50 mM HEPES, pH7.5) only. Samples are thoroughly shaken (30 sec, 1400 rpm) and reaction is allowed to take place at room temperature, 250 rpm and for 5 min. The reaction is stopped by addition of a vanin tool inhibitor in excess (BI-1 total conc. 10 μM). Centrifugation of the plate follows at 4° C., 665 G for 10 min. Then the blood plasma samples (100 μL) are transferred into another 96-deep-well plate and proteins are precipitated (5 min on ice) by adding 100 μL of ice cold precipitation solution (1 μM labelled pantothenic acid (di-β-alanine-13C6,15N2 calcium salt, Sigma, #705837) in acetonitrile).
Afterwards the plate is centrifuged (4° C., 3220 G, 10 min) and supernatants (50 μL) are collected into another 96-deep-well plate and mixed (10 sec, 1400 rpm) with 150 μL ice cold formic acid (0.1%, Carl Roth GmbH+Co.KG, #CP03.1). The formation of pantothenic acid is detected by RapidFire Mass Spectrometry. A TripleQuad 6500+(ABSciex, Germany) is equipped with an LC-1290 system, a RapidFire autosampler (Agilent, Germany) and a C18 cartridge Type C 12 μL (Agilent Cat #G9526-80000). Mobile phase A is consisting of 0.09% formic acid and 0.01% trifluoroacetic acid in water and mobile phase B of 0.09% formic acid and 0.01% trifluoroacetic acid in acetonitrile/methanol/water=47.5/47.5/5.

What is called IC50 is the concentration at which inhibition is half-maximal. Turning to `CC(=O)N(C)[C@H]1CCN(C(=O)c2ccc(NCc3cccc4[nH]ccc34)nc2)C1` [Example 5.6], the IC50 in experiment [1] is 0.13 nM; with Pantetheinase (vanin) it was 2.1 nM.

As to `CC(=O)N(C)[C@H]1CCN(C(=O)c2ccc(NCc3n[nH]c4ccccc34)nc2)C1` [Example 5.14], the concentration for half-maximal inhibition (IC50) in experiment [1] was determined as 0.36 nM; in the experiment on Pantetheinase (vanin), 1.69 nM.

Consider `CC(=O)N(C)[C@H]1CCN(C(=O)c2ccc(N[C@@H](C)c3cccc4[nH]ncc34)nc2)C1` [Example 7.1, N-[(3S)-1-(6-{[(1S)-1-(1H-Indazol-4-yl)ethyl]amino}pyridine-3-carbonyl)pyrrolidin-3-yl]-N-methylacetamide], for which the IC50 came to 0.33 nM in experiment [1] and 7.66 nM with Pantetheinase (vanin).

On to `CC(=O)N(C)[C@H]1CCN(C(=O)c2ccc(NCc3cnc4ccccn34)nc2)C1` [Example 5.12], for which the values for the concentration for half-maximal inhibition (IC50) (in experiment [1]; with Pantetheinase (vanin)) were 0.23 nM and 3.91 nM, respectively.

Regarding `CC(=O)N(C)[C@H]1CCN(C(=O)c2ccc(NCc3ccc4nc[nH]c4c3)nc2)C1` [Example 5.7], the IC50 in experiment [1] came out at 0.14 nM; in the experiment with Pantetheinase (vanin) it was 4.49 nM.

In the case of `CC(=O)N(C)[C@H]1CCN(C(=O)c2ccc(NC(C)c3cccc4[nH]ccc34)nc2)C1` (stereo partly drawn) [Example 5.10], the IC50 in experiment [1] stood at 0.18 nM; with Pantetheinase (vanin), 1.41 nM.

As for `CC(=O)N(C)[C@H]1CCN(C(=O)c2ccc(NCc3csc4ccccc34)nc2)C1` [Example 3.1, N-[(3S)-1-(6-{1[(1-Benzothiophen-3-yl)methyl]amino}pyridine-3-carbonyl)pyrrolidin-3-yl]-N-methylacetamide], the IC50 in experiment [1] came out at 0.41 nM; with Pantetheinase (vanin), 7.21 nM.

As to `CN(C(=O)C1CC1)[C@H]1CCN(C(=O)c2ccc(NCc3csc4ccccc34)nc2)C1` [Example 5.39], the IC50 in experiment [1] stood at 0.29 nM; with Pantetheinase (vanin), 26.2 nM.

As for `C[C@H](Nc1ccc(C(=O)N2CC[C@H](N(C)C(=O)C3CCC3)C2)cn1)c1cnc2[nH]ccc2c1` [Example 1.5], the IC50 in experiment [1] worked out at 0.11 nM; in the experiment with Pantetheinase (vanin), 1.58 nM.

In the case of `C[C@H](Nc1ccc(C(=O)N2CC[C@H](N(C)C(=O)C3(C#N)CC3)C2)cn1)c1cnc2[nH]ccc2c1` [Example 1.3], the concentration for half-maximal inhibition (IC50) in experiment [1] came to 0.1 nM; with Pantetheinase (vanin), 3.05 nM.

For the molecule `CC1(C#N)CCN(C(=O)c2ccc(NCc3cnc4ccccn34)nc2)C1` (stereo not drawn) [Example 1.18], the half-inhibitory concentration (IC50) in experiment [1] came out at 0.41 nM; in the experiment with Pantetheinase (vanin), 3.67 nM.

Turning to `CN(C(=O)C1(C)CCC1)[C@H]1CCN(C(=O)c2ccc(NCc3cnc4ccccn34)nc2)C1` [Example 1.14], the results for the IC50 (in experiment [1]; with Pantetheinase (vanin)) were 0.18 nM and 2.59 nM, respectively.

On to `C[C@H](Nc1ccc(C(=O)N2CC[C@H](N(C)C(=O)C3CC3)C2)cn1)c1cnc2[nH]ccc2c1` [Example 1.2], for which the concentration for half-maximal inhibition (IC50) in experiment [1] is 0.09 nM; in the experiment on Pantetheinase (vanin) it was 1.94 nM.

As to `O=C(c1ccc(NCc2cnc3ccccn23)nc1)N1CC[C@H](N2CCOC2=O)C1` [Example 1.1, 3-[(3S)-1-{6-[({Imidazo[1,2-a]pyridin-3-yl}methyl)amino]pyridine-3-carbonyl}pyrrolidin-3-yl]-1,3-oxazolidin-2-one], the IC50 worked out at 0.24 nM in experiment [1] and 3.49 nM with Pantetheinase (vanin).

`CC(=O)N(C)[C@H]1CCN(C(=O)c2ccc(NCc3cncc4ccsc34)nc2)C1` [Example 5.1, N-Methyl-N-[(3S)-1-{6-[({thieno[3,2-c]pyridin-7-yl}methyl)amino]pyridine-3-carbonyl}pyrrolidin-3-yl]acetamide]: the figures for the IC50 (in experiment [1]; in the experiment on Pantetheinase (vanin)) were 0.04 nM and 1.17 nM, respectively.

On to `CN(C(=O)C1CC(F)(F)C1)[C@H]1CCN(C(=O)c2ccc(NCc3cnc4ccccn34)nc2)C1` [Example 1.12], for which the IC50 in experiment [1] was determined as 0.1 nM; in the experiment with Pantetheinase (vanin), 1.48 nM.

Turning to `CC(=O)N(C)[C@H]1CCN(C(=O)c2ccc(NCc3noc4c3CCCC4)nc2)C1` [Example 5.21], the half-inhibitory concentration (IC50) was determined as 0.79 nM in experiment [1] and 3.4 nM with Pantetheinase (vanin).

With `CC(=O)N(C)[C@H]1CCN(C(=O)c2ccc(N[C@@H](C)c3ccc4[nH]ncc4c3)nc2)C1` [Example 5.8], the results for the IC50 (in experiment [1]; in the experiment on Pantetheinase (vanin)) were 0.16 nM and 1.71 nM, respectively.

With `CC(=O)N(C)[C@H]1CCN(C(=O)c2ccc(NCc3n[nH]c4ccc(Cl)cc34)nc2)C1` [Example 2.1, N-[1(3S)-1-(6-{1[(5-Chloro-1H-indazol-3-yl)methyl]amino}pyridine-3-carbonyl)pyrrolidin-3-yl]-N-methylacetamide], the IC50 in experiment [1] stood at 0.23 nM; in the experiment on Pantetheinase (vanin), 5.03 nM.

Take `CC(=O)N(C)[C@H]1CCN(C(=O)c2ccc(NCc3cccc4ncccc34)nc2)C1` [Example 5.24]: the IC50 is 1.23 nM in experiment [1] and 3.88 nM in the experiment with Pantetheinase (vanin).

Take `CC(=O)N(C)[C@H]1CCN(C(=O)c2ccc(N[C@@H](C)c3ccc4nc[nH]c4c3)nc2)C1` [Example 5.36]: the IC50 came to 0.22 nM in experiment [1] and 4.86 nM in the experiment with Pantetheinase (vanin).

On to `CC(=O)N(C)[C@H]1CCN(C(=O)c2ccc(NCc3ncn4ccccc34)nc2)C1` [Example 5.19], for which the IC50 in experiment [1] is 0.75 nM; in the experiment on Pantetheinase (vanin), 3.69 nM.

With `C[C@H](Nc1ccc(C(=O)N2CC[C@H](N(C)C(=O)C3(C#N)CC3)C2)cn1)c1cnc2[nH]ccc2c1` [Example 1.7], the concentration for half-maximal inhibition (IC50) turned out to be 0.13 nM in experiment [1] and 1.7 nM with Pantetheinase (vanin).

`C[C@H](Nc1ccc(C(=O)N2CC[C@H](N(C)C(=O)C3CC(F)(F)C3)C2)cn1)c1cnc2[nH]ccc2c1` [Example 1.6]: the figures for the IC50 (in experiment [1]; in the experiment with Pantetheinase (vanin)) were 0.12 nM and 6.38 nM, respectively.

Consider `C[C@H](Nc1ccc(C(=O)N2CC[C@H](N(C)C(=O)C3CCC3)C2)cn1)c1cnc2[nH]ccc2c1` [Example 1.4], for which the results for the concentration for half-maximal inhibition (IC50) (in experiment [1]; in the experiment with Pantetheinase (vanin)) were 0.1 nM and 2.07 nM, respectively.

Turning to `CC(=O)N(C)[C@H]1CCN(C(=O)c2ccc(N[C@@H](C)c3ccc4nn(C)cc4c3)nc2)C1` [Example 5.38], the IC50 in experiment [1] is 0.36 nM; in the experiment on Pantetheinase (vanin) it was 1.37 nM.

As for `CC(=O)N(C)[C@H]1CCN(C(=O)c2ccc(NCc3c(C)ccc4nc(C)[nH]c34)nc2)C1` [Example 5.40], the half-maximal inhibitory concentration (IC50) in experiment [1] was found to be 0.54 nM; in the experiment on Pantetheinase (vanin), 1.06 nM.

Take `O=C(c1ccc(NCc2cnc3ccccn23)nc1)N1CC[C@H](N2CCCC2=O)C1` [Example 1.15]: the half-maximal inhibitory concentration (IC50) came out at 0.19 nM in experiment [1] and 4.82 nM with Pantetheinase (vanin).

`CC1(C#N)CCN(C(=O)c2ccc(NCc3ncn4ccccc34)nc2)C1` (stereo not drawn) [Example 1.17]: the IC50 in experiment [1] was 0.83 nM; in the experiment on Pantetheinase (vanin), 10.4 nM.

As to `CC(=O)N(C)[C@H]1CCN(C(=O)c2ccc(N[C@@H](C)c3nc4ccccc4[nH]3)nc2)C1` [Example 5.23], the IC50 amounted to 1.43 nM in experiment [1] and 4.1 nM in the experiment with Pantetheinase (vanin).
